{
  "source": "patent US20200048668A1",
  "about": "“BIOLOGICAL PRODUCTION OF ß-LACTONES” (Regents of the University of Minnesota, priority 2018, published 2020)",
  "key": {"[1]": {"target": "Xc OleB (Xanthomonas campestris pv. campestris, UniProt Q8PDW8)", "sequence (Q8PDW8 whole entry)": "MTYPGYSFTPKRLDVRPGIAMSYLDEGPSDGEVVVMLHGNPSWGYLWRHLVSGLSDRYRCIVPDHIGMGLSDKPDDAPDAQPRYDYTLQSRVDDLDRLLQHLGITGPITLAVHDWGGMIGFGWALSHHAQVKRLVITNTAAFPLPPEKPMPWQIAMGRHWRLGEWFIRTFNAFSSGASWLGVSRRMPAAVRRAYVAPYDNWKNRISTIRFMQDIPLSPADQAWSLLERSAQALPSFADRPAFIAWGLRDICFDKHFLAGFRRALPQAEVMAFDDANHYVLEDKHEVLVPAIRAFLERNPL", "test": "OleB reactions with haloalkanes (GC-FID/MS)", "format": "biochemical", "conditions": "monitored by GC-FID/MS", "method": "The following haloalkane substrates were dissolved in ethanol to a concentration of 5 mM for testing with Xc OleB: 1-iodobutane, 1,3-diiodobutane,1-chlorobutane, 1-bramopentane, 1-chlorohexane, 1-bromooctane, 1-iodoundecane, and 7-(bromomethyl)pentadecane. Reactions were carried out in glass GC vials contained purified OleB (40 μg) and 10 μL of substrate in 500 μL, of 200 mM NaCl, 20 mM NaPO4 at pH 7.4. Reactions were incubated at room temperature overnight, followed by extraction with tert-butyl methylether (MTBE). The MTBE extract was transferred to a clean GC vial and analyzed by gas chromatography/mass spectrometry (GC/MS Agilent 7890a & 5975c with an Agilent J&W bd-ms1 column 30 m length, 0.25 mm diameter, 0.25 μm film)."}, "[2]": {"target": "X. campestris OleB (Xanthomonas campestris pv. campestris, UniProt Q8PDW8)", "sequence (Q8PDW8 whole entry)": "as above", "test": "OleB reactions with β-lactone followed by 1H-NMR", "format": "biochemical", "conditions": "for β-lactone that underwent decarboxylation to cis-olefin: 1.0 mg OleB, overnight, room temperature, 1H-NMR"}, "[3]": {"target": "OleB (Xanthomonas campestris pv. campestris, UniProt Q8PDW8)", "sequence (Q8PDW8 whole entry)": "as above", "test": "MALDI-TOF of acyl-enzyme intermediate with haloalkane", "format": "binding", "conditions": "wild type OleB", "method": "To identify an acyl-enzyme intermediate, Matrix Assisted Laser Desorption Ionization (MALDI) was carried out on wild type OleB and OleBD114A proteins that had been reacted with 7-(bromornethyl)pentadecane (TCI). These two substrates contain the reactive bromomethyl group in the middle of a long alkyl chain, thereby mimicking the β-lactone substrate of OleB. Reactions contained 500 μM substrate and 40 μg of OleB in 100 μL of buffer (20 mM NaCl, 5 mM NaPO4, pH 7.4). Reaction were prepared for MALDI using standard C4 ZipTip (Millipore) procedures and spotted on a plate with sinapinic acid. Samples were analyzed on a Bruker Autoflex Speed MALDI-TOF."}, "[4]": {"target": "human 20S protease (Homo sapiens, UniProt P28072+P28074+Q99436)", "conditions": "cited from earlier work"}, "[5]": {"target": "human pancreatic lipase (Homo sapiens, UniProt P16233)", "conditions": "cited from earlier work"}, "[6]": {"target": "T1, pancreatic lipase (Homo sapiens, UniProt P16233)", "T1 sequence (P16233 17-465)": "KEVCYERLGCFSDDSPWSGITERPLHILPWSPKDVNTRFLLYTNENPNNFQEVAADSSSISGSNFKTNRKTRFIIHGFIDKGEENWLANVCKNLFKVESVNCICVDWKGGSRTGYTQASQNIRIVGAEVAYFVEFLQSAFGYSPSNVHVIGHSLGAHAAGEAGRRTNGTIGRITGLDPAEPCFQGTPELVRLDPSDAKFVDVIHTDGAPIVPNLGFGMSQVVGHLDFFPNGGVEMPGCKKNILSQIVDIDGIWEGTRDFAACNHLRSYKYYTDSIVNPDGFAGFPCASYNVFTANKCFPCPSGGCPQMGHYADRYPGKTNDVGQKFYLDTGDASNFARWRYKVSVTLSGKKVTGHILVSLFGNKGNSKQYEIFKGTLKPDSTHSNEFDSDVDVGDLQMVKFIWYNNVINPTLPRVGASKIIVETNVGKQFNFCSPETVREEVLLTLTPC", "test": "Lipase inhibition by β-lactones in microtiter well plates", "format": "biochemical", "conditions": "FIGS. 13A-E", "method": "Cis and trans-isomers of β-lactones were synthesized and tested separately. […] These reactions were conducted in microtiter well plates so the inhibition of the lipase can be measured in a high-throughput manner such that hundreds or thousands of β-lactones can be rapidly screened. In addition, fatty acyl-CoA substrates can be combined with OleADC and lipase and lipase inhibition can be detected. Moreover, lipase may be substituted with proteasomes, penicillin binding proteins, pathogenic bacteria, or cancer cells and inhibitory activity of one or a plurality of β-lactones detected."}, "[7]": {"target": "ClpP protease of Mycobacterium tuberculosis (Mycobacterium tuberculosis, UniProt P9WPC3+P9WPC5)", "sequence (P9WPC5 whole entry)": "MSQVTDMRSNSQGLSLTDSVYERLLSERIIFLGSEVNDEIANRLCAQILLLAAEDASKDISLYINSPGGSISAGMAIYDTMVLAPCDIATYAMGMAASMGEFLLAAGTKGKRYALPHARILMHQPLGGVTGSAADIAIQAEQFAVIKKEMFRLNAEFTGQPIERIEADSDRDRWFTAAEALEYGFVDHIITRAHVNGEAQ", "sequence (P9WPC3 whole entry)": "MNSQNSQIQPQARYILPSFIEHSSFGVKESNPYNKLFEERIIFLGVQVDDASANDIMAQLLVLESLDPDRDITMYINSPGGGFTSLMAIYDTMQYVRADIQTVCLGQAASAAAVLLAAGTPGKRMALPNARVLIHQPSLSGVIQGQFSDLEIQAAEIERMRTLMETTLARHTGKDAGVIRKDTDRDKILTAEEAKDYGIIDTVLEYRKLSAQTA", "conditions": "cited from earlier work"}},
  "data": [
    {"molecule": "CCCCCl", "note": "[1-chlorobutane]", "values": [
      {"measurement": "dehalogenase activity towards haloalkane substrate", "setting": "[1]", "result": "No detectable activity"}
    ]},
    {"molecule": "CCCCCCBr", "note": "[1-bromohexane]", "values": [
      {"measurement": "dehalogenase activity towards haloalkane substrate", "setting": "[1]", "result": "No detectable activity"}
    ]},
    {"molecule": "CCCCCCCCCC1OC(=O)C1CCCCCCCC", "note": "(stereo not drawn) [cis-β-lactone, 3-octyl-4-nonyl-2-oxetanone]", "values": [
      {"measurement": "β-lactone that underwent decarboxylation to cis-olefin", "setting": "[2]", "result": 47, "unit": "%"},
      {"measurement": "cis-β-lactone starting material converted to cis-olefin", "setting": "[2]; 2 mg of OleB", "result": 54, "unit": "%"},
      {"measurement": "cis-β-lactone starting material converted to cis-olefin", "setting": "[2]; 4 mg of OleB", "result": 63, "unit": "%"}
    ]},
    {"molecule": "CCCCCCCl", "note": "[1-cholohexane]", "values": [
      {"measurement": "dehalogenase activity towards haloalkane substrate", "setting": "[1]", "result": "No detectable activity"}
    ]},
    {"molecule": "CCCCCCCCC(CBr)CCCCCC", "note": "(stereo not shown) [7-(bromomethyl)pentadecane]", "values": [
      {"measurement": "acyl-enzyme intermediate formation (mass shift)", "setting": "[3]", "result": "forms a stable acyl-enzyme intermediate"},
      {"measurement": "dehalogenase activity towards haloalkane substrate", "setting": "[1]", "result": "No detectable activity"}
    ]},
    {"molecule": "CCCCCCCCCC1OC(=O)C1CCCCCCCC", "note": "(stereo not drawn) [trans-β-lactone, 3-octyl-4-nonyl-2-oxetanone]", "values": [
      {"measurement": "β-lactone that underwent decarboxylation to cis-olefin", "setting": "[2]", "result": 4, "unit": "%"}
    ]},
    {"molecule": "salinosporamide", "values": [
      {"measurement": "inhibition of human 20S protease function", "setting": "[4]", "result": "inhibit human 20S protease function"}
    ]},
    {"molecule": "CCCCC/C=C\\C/C=C\\C[C@@H](C[C@@H]1OC(=O)[C@H]1CCCCCC)OC(=O)[C@H](CC(C)C)NC=O", "note": "[lipstatin]", "values": [
      {"measurement": "inhibition of human pancreatic lipase", "setting": "[5]", "result": "inhibiting human pancreatic lipase"}
    ]},
    {"molecule": "CCCCI", "note": "[1-iodobutane]", "values": [
      {"measurement": "dehalogenase activity towards haloalkane substrate", "setting": "[1]", "result": "No detectable activity"}
    ]},
    {"molecule": "CCCCCCCCCCC[C@@H](C[C@@H]1OC(=O)[C@H]1CCCCCC)OC(=O)[C@H](CC(C)C)NC=O", "note": "[Orlistat, tetrahydrolipstatin]", "values": [
      {"measurement": "lipase inhibitory activity", "setting": "[6]", "result": "inhibits pancreatic lipase at nanogram levels"}
    ]},
    {"molecule": "CCCCBr", "note": "[1-bromobutane]", "values": [
      {"measurement": "dehalogenase activity towards haloalkane substrate", "setting": "[1]", "result": "No detectable activity"}
    ]},
    {"molecule": "CCCC1OC(=O)C1Cc1ccccc1", "note": "(stereo not shown) [3-benzyl, 4-propyl oxetanone]", "values": [
      {"measurement": "inhibition of ClpP protease", "setting": "[7]", "result": "inhibit the ClpP protease of Mycobacterium tuberculosis"}
    ]},
    {"molecule": "CCCCCCCCCCCI", "note": "[1-iodoundecane]", "values": [
      {"measurement": "dehalogenase activity towards haloalkane substrate", "setting": "[1]", "result": "No detectable activity"}
    ]}
  ]
}
